Key:
Test in all cases: pre-emergence herbicidal test
Assay type in all cases: in vivo
[1] = system: Zea mays (ZEAMX)
Protocol: (§1) To evaluate their herbicidal activity, compounds according to the invention are tested using a representative range of plants: […] The pre-emergence tests involve spraying a liquid formulation of the compound onto the soil in which the seeds of the plant species mentioned above has recently been sown. The soil used in the tests is a prepared horticultural loam. […] In these tests untreated sown soil are used as controls.

[2] = system: Ipomoea hederacea (IPOHE); details: second assessment 21 days after treatment
Protocol: as §1

[3] = system: Alopecurus myosuroides (ALOMY); details: second assessment 21 days after treatment
Protocol: as §1

[4] = system: Abutilon theophrasti (ABUTH); details: second assessment 21 days after treatment
Protocol: as §1

[5] = system: Ambrosia artemisiifolia (AMBEL); details: second assessment 21 days after treatment
Protocol: as §1

[6] = system: Setaria viridis (SETVI); details: second assessment 21 days after treatment
Protocol: as §1

[7] = system: Matricaria inodora (MATIN); details: second assessment 21 days after treatment
Protocol: as §1

[8] = system: Glycine max (GLXMA)
Protocol: as §1

[9] = system: Triticum aestivum (TRZAW)
Protocol: as §1

[10] = 0.0125 kg/ha, first assessment 10 days after treatment
[11] = 0.0125 kg/ha, second assessment 21 days after treatment
[12] = 0.025 kg/ha, first assessment 10 days after treatment
[13] = 0.025 kg/ha, second assessment 21 days after treatment
[14] = 0.100 kg/ha, first assessment 10 days after treatment
[15] = 0.100 kg/ha, second assessment 21 days after treatment
[16] = 0.400 kg/ha, first assessment 10 days after treatment
[17] = 0.400 kg/ha, second assessment 21 days after treatment

Cc1c(F)c(Oc2cccc(C(F)(F)F)c2)nc(-c2ccc(C(F)(F)F)cc2)c1F [Example 2]
7 (7 - Good herbicidal effect): IPOHE rating ([2]; 0.400 kg/ha) | MATIN rating ([7]; 0.0125 kg/ha) | GLXMA rating [8, 17]
3 (3 - Moderate effect): ZEAMX rating [1, 16] | ZEAMX rating [1, 17] | IPOHE rating ([2]; 0.100 kg/ha) | ALOMY rating ([3]; 0.025 kg/ha) | ABUTH rating ([4]; 0.100 kg/ha) | GLXMA rating [8, 14]
2 (2 - Slight effect): ZEAMX rating [1, 14] | ZEAMX rating [1, 15] | IPOHE rating ([2]; 0.025 kg/ha) | ALOMY rating ([3]; 0.0125 kg/ha) | GLXMA rating [8, 11] | GLXMA rating [8, 13]
8 (8 - Approaching complete kill): ABUTH rating ([4]; 0.400 kg/ha) | SETVI rating ([6]; 0.025 kg/ha) | MATIN rating ([7]; 0.025 kg/ha) | MATIN rating ([7]; 0.100 kg/ha)
1 (1 - Trace effect): ZEAMX rating [1, 12] | ZEAMX rating [1, 13] | IPOHE rating ([2]; 0.0125 kg/ha) | ABUTH rating ([4]; 0.025 kg/ha) | GLXMA rating [8, 12] | TRZAW rating [9, 10] | TRZAW rating [9, 12] | TRZAW rating [9, 14] | TRZAW rating [9, 15]
9 (9 - Complete kill): ALOMY rating ([3]; 0.400 kg/ha) | AMBEL rating ([5]; 0.400 kg/ha) | SETVI rating ([6]; 0.100 kg/ha) | SETVI rating ([6]; 0.400 kg/ha) | MATIN rating ([7]; 0.400 kg/ha)
4 (4 - Injury): AMBEL rating ([5]; 0.0125 kg/ha) | GLXMA rating [8, 15] | TRZAW rating [9, 16]
5 (5 - Definite injury): AMBEL rating ([5]; 0.025 kg/ha) | AMBEL rating ([5]; 0.100 kg/ha) | SETVI rating ([6]; 0.0125 kg/ha) | TRZAW rating [9, 17]
6 (6 - Herbicidal effect): GLXMA rating [8, 16]
0 (0 - No effect): ZEAMX rating [1, 10] | ZEAMX rating [1, 11] | ABUTH rating ([4]; 0.0125 kg/ha) | GLXMA rating [8, 10] | TRZAW rating [9, 11] | TRZAW rating [9, 13]

Source: patent US6673745B2, “Herbicidal 3,5-difluoropyridines” (BASF Aktiengesellschaft, priority 1997, dated 2004)
